Data on 28 compounds can be found in ChEMBL document CHEMBL5154822, “Novel inhibitors of AChE and Aβ aggregation with neuroprotective properties as lead compounds for the treatment of Alzheimer's disease” (Eur J Med Chem, 2022).

One assay deals with T1, Acetylcholinesterase (Mus musculus, UniProt P21836).
T1 sequence (P21836 whole entry): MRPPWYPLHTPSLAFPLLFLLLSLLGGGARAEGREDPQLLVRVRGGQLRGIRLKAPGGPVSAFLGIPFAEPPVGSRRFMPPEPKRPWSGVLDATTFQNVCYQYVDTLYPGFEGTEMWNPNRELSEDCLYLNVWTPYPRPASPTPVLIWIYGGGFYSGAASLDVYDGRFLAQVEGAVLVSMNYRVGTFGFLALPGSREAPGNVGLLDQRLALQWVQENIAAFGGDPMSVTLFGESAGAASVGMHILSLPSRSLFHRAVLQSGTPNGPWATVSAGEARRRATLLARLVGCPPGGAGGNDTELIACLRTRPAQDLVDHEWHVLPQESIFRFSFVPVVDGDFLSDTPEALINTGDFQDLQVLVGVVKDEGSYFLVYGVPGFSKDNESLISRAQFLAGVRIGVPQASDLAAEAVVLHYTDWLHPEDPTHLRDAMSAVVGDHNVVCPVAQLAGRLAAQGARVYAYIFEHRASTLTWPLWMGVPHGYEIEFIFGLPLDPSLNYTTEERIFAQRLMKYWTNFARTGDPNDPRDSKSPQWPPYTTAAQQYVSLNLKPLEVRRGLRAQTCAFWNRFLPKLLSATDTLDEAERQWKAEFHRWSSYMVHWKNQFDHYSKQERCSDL
Briefly: Inhibition of AChE in mouse cerebral cortex using acetylthiocholine iodide as substrate preincubated for 10 mins followed by substrate addition and measured for 180 secs by Ellman's spectrophotometric method. Format: tissue-based.
Settings: not given
Background: In Ellman's method for cholinesterases, released thiocholine reacts with DTNB.
A word on the IC50: it is the concentration that inhibits the measured activity by half. `COc1cc2c(cc1OC)S(=O)(=O)C(CC1(F)CCN(Cc3ccccc3Cl)CC1)C2` (stereo not drawn): the IC50 turned out to be 0.0055 µM. Still for that read-out and setting: the same measure for `COc1cc2c(cc1OC)S(=O)(=O)C(CC1(F)CCN(Cc3cccc(F)c3)CC1)C2` (stereo not drawn): 0.0051 µM. The same measure, in the same setting: the same measure for `COc1cc2c(cc1OC)S(=O)(=O)C(CC1CCN(Cc3cccc(F)c3)CC1)C2` (stereo not drawn): 0.0044 µM; for `COc1cc2c(cc1OC)S(=O)(=O)C(CC1CCN(Cc3c(F)cc(F)cc3F)CC1)C2` (stereo not drawn): 0.128 µM. On the same count and under the same terms, next, `COc1cc2c(cc1OC)S(=O)(=O)/C(=C/C1CCN(Cc3ccccc3)CC1)CC2`: 1.82 µM; `COc1cc2c(cc1OC)S(=O)(=O)C(CC1CCN(Cc3ccccc3F)CC1)C2` (stereo not drawn): 0.0115 µM; `COc1cc2c(cc1OC)S(=O)(=O)C(CC1CCN(Cc3ccccc3)CC1)C2` (stereo not drawn): 0.0044 µM. `CO/C(=C\C1CCN(Cc2ccccc2)CC1)S(=O)(=O)c1ccc(OC)c(OC)c1` registered an IC50 of 8.44 µM. `COc1cc2c(cc1OC)S(=O)(=O)/C(=C/C1CCN(Cc3ccccc3)CC1)C2` came in with an IC50 of 0.0047 µM. As to `COc1cc2c(cc1OC)S(=O)(=O)C(CC1CCN(Cc3ccccc3)CC1)=C2`, the IC50 worked out at 0.317 µM. With `COc1cc2c(cc1OC)S(=O)(=O)C(CC1(F)CCN(Cc3ccc(F)cc3F)CC1)C2` (stereo not drawn), inhibition was half-maximal at 0.0071 µM (IC50). The same measure, in the same setting: next, `COc1cc2c(cc1OC)S(=O)(=O)C(CC1(F)CCN(Cc3ccc(F)cc3)CC1)C2` (stereo not drawn): 0.0113 µM; `COc1cc2c(cc1OC)S(=O)(=O)C(CC1CCN(Cc3ccc(F)cc3)CC1)C2` (stereo not drawn): 0.0113 µM; `COc1cc2c(cc1OC)S(=O)(=O)C(CC1(F)CCN(Cc3cccc(Cl)c3)CC1)C2` (stereo not drawn): 0.005 µM. On the same count and under the same terms, next, `COc1cc2c(cc1OC)S(=O)(=O)C(CC1(F)CCN(Cc3ccc(F)c(Cl)c3)CC1)C2` (stereo not drawn): 0.0129 µM; `COc1cc2c(cc1OC)S(=O)(=O)C(CC1(F)CCN(Cc3ccccc3)CC1)C2` (stereo not drawn): 0.0041 µM. The same measure, in the same setting: the same measure for `COc1cc2c(cc1OC)S(=O)(=O)C(CC1(F)CCN(Cc3cccc(C)c3)CC1)C2` (stereo not drawn): 0.0038 µM. `COc1cc2c(cc1OC)S(=O)(=O)/C(=C\C1CCN(Cc3ccccc3)CC1)C2` had an IC50 of 0.0111 µM. `COc1cc2c(cc1OC)S(=O)(=O)C(CC1(F)CCN(Cc3ccccc3C(F)(F)F)CC1)C2` (stereo not drawn) had an IC50 of 3.01 µM. Against the preceding compound, the IC50 is about 270-fold higher.

Compound `COc1ccc(S(=O)(=O)/C=C/C2CCN(Cc3ccccc3)CC2)cc1OC` displayed an IC50 of 0.0676 µM.

`COc1cc2c(cc1OC)S(=O)(=O)C(CC1CCN(Cc3ccc(F)c(Cl)c3)CC1)C2` (stereo not drawn) gave an IC50 of 0.0115 µM.

`COc1ccc(S(=O)(=O)/C(Cl)=C/C2CCN(Cc3ccccc3)CC2)cc1OC`: inhibition was half-maximal at 0.34 µM (IC50). Same read-out and setting: next, `COc1cc2c(cc1OC)S(=O)(=O)C(CC1CCN(Cc3ccc(F)cc3F)CC1)C2` (stereo not drawn): 0.0147 µM; `COc1cc2c(cc1OC)S(=O)(=O)C(CC1(F)CCN(Cc3ccccc3C)CC1)C2` (stereo not drawn): 0.0121 µM. The compound `COc1cc2c(cc1OC)S(=O)(=O)C(CC1(F)CCN(Cc3ccccc3F)CC1)C2` (stereo not drawn) showed an IC50 of 0.0085 µM.

Another assay has as its target T2, Acetylcholinesterase (Mus musculus) (UniProt P21836).
T2 sequence (whole entry): T1 sequence (P21836 whole entry)
Briefly: Inhibition of AChE in mouse cerebral cortex using acetylthiocholine iodide as substrate at 40 uM preincubated for 10 mins followed by substrate addition and measured for 180 secs by Ellman's spectrophotometric method. The class given is tissue-based. The conditions noted are these: time 780.0 sec.
One may read the inhibition as how much of the control response was suppressed. A low value points to a response near the control. `COc1cc2cc(CC3CCN(Cc4ccccc4)CC3)sc2cc1OC` displayed an inhibition of 46.6%.

For the compound `CCOC(=O)/C(=C\C1CCN(Cc2ccccc2)CC1)S(=O)(=O)c1ccc(OC)c(OC)c1`, the inhibition came out at 12.4%.

`COc1cc2c(cc1OC)S(=O)(=O)/C(=C/C1CCN(Cc3ccccc3)CC1)CCC2` had an inhibition of 32.8%.
